Source: patent US5266561A, “Treatment of type 2 diabetes mellitus” (Amylin Pharmaceuticals, Inc., priority 1991, dated 1993)
Where no end group is shown, it is not given here.

Experiments:
[1] = target: T1, insulin receptor on red blood cells; test: Displacement of insulin from its receptor on red blood cells; format: binding
T1 construct: endogenous in cells; host or cells: red blood cells

rat islet cells [2] = test: Glucose-stimulated insulin secretion from isolated rat islets of Langerhans; format: cell-based; details: glucose 10 mmol/L; for RELATIVE INSULIN SECRETION INHIBITION: reduction from control
Procedure: All experiments were performed by known methods used in experimental practice. See, e.g., Lacey P E, and Kostianovsky M, Method for the isolation of intact islets of Langerhans from the rat Dancreas. Diabetes 1967; 16:35-39.
Briefly, rats were killed, and islets of Langerhans were isolated from their pancreases. Experiments were performed either with freshly isolated islets or after overnight incubation of islets (23 h) in standard culture medium and conditions at 37° C. […] Incubation of islets for these experiments was carried out in standard Krebs-Heinsleit buffer, and it was verified that the addition of the 1.0 mmol/L citrate buffer had no effect on the pH of the incubation medium. Stimulation of islets was carried out at the standard stimulatory glucose concentration of 10 mmol/L.
Production of insulin is expressed as μU/islet/h. All experiments were performed with five replicates per point. The integrity of the islet response was assessed by comparing the responses after stimulation of different aliquots of islets by two and ten mmol/L glucose, respectively, and the strength of the inhibitory response was judged against that induced by 1 μg/ml (650 nmol/L) somatostatin. […] See Arimura A. Biomed res 1981; 2:233-257. […] See Petterson M, Ahren B, Bottcher G, Sundler F, Endocrinology 1986; 119:865-869.
The results are shown in TABLE 5 below and all results are expressed as ± standard error of the mean (s.e.m.). The significance of differences between the means of groups is assessed by the t-test. The result of stimulation by 10 mmol/L glucose is compared with the results of stimulation at 2 mmol/L glucose. In all other experimental conditions, the significance of the inhibitory effect is measured against the effect of 10 mmol/L glucose alone.

rat islet cells [3] = details: literature statement; cited from earlier work

amylin: 37-residue peptide from pancreatic amyloid of Type 2 diabetics; source (synthetic or native) not stated at these places (KCNTATCATQRLANFLVHSSNNFGAILSSTNVGSNTY; Islet amyloid polypeptide; UniProt P10997 34-70, looked up)
displacing insulin from its receptor on red blood cells [1]: not capable of significantly displacing insulin

CGRP 27-37 (FVPTNVGSKAF; ends and bridges not checked; UniProt P06881 109-119, looked up, fragment)
INSULIN PRODUCTION Mean value (rat islet cells [2]; 10 nmol/L): 36 μU/islet/hr
RELATIVE INSULIN SECRETION INHIBITION (rat islet cells [2]; 10 nmol/L): 55%
INSULIN PRODUCTION Mean value (rat islet cells [2]; 100 nmol/L): 36 μU/islet/hr
RELATIVE INSULIN SECRETION INHIBITION (rat islet cells [2]; 100 nmol/L): 55%
INSULIN PRODUCTION Mean value (rat islet cells [2]; 1000 nmol/L): 46 μU/islet/hr
RELATIVE INSULIN SECRETION INHIBITION (rat islet cells [2]; 1000 nmol/L): 42%

C[C@H](N)C(=O)NCC(=O)N[C@H]1CSSC[C@@H](C(=O)O)NC(=O)[C@H](CO)NC(=O)[C@H]([C@@H](C)O)NC(=O)[C@H](Cc2ccccc2)NC(=O)[C@H]([C@@H](C)O)NC(=O)[C@H](CCCCN)NC(=O)[C@H](Cc2c[nH]c3ccccc23)NC(=O)[C@H](Cc2ccccc2)NC(=O)[C@H](Cc2ccccc2)NC(=O)[C@H](CC(N)=O)NC(=O)[C@H](CCCCN)NC1=O [Somatostatin, reference compound]
INSULIN PRODUCTION Mean value (rat islet cells [2]; 650 nmol/L): 44 μU/islet/hr
RELATIVE INSULIN SECRETION INHIBITION (rat islet cells [2]; 650 nmol/L): 45%
inhibition of the insulin secretory response of islet B-cells to glucose (rat islet cells [3]): known, potent inhibitor
